One compound from patent publication US9145404B2, “Tetomilast polymorphs” (Otsuka Pharmaceutical Co., Ltd., priority 2006, dated 2015) can be followed below.

Series [1] in a line: Crystal form after standing at 20° C. to 30° C., examined by powder X-ray diffraction. It counts as physicochemical. The following applies: left at a temperature between 20° C. and 30° C. for approximately 1 year. The protocol: (§1) The powder X-ray diffraction spectrum was measured in an angle of diffraction that ranged from 3° to 40°, according to the general test method of the Pharmacopoeia of Japan, using RAD-2B diffractometer (radiation source: CuKα) manufactured by Rigaku Denki. During the measurement, voltage/current was set at 35 kV/20 mA, and the scan speed was set at 5°/min.
(1) The anhydrous tetomilast type B crystal obtained in Reference example 1 (3) was left at a temperature between 20° C. and 30° C. for approximately 1 year, and thereafter, the crystal form thereof was examined by powder X-ray diffraction.

Series [2] can be described thus: Transformation of type B crystal to type A crystal while stirred as a suspension in acetone-water, crystal form by powder X-ray diffraction. The class given is physicochemical. The following applies: 5 g suspended in 40 ml acetone and 10 ml water. The procedure: as §1
The mixing ratio of a mixture consisting of an anhydrous tetomilast type A crystal and an anhydrous tetomilast type B crystal was obtained by comparing the powder X-ray diffraction spectrum of the above mixture, with the powder X-ray diffraction spectrum of a mixture formed by mixing a pure anhydrous tetomilast type A crystal and a pure anhydrous tetomilast type B crystal at various ratios.
Thermal transformation from an anhydrous tetomilast type B crystal to an anhydrous tetomilast type A crystal was confirmed by the means described in (1) to (3) below:
(§2) (2) 5 g of the anhydrous tetomilast type B crystal obtained in Reference example 1 (3) was suspended in a solution consisting of 40 ml of acetone and 10 ml of water, and the obtained mixture was then stirred at 20° C. At that time, sampling was carried out at intervals of 15 minutes, 30 minutes, 60 minutes, and 120 minutes, and each of the obtained samples was subjected to powder X-ray diffraction to examine the crystal form.
as §2, with “(3)” for “(2)”, “40°” for “20°”, “form. As a result, it could be confirmed that the sample collected after stirring for 15 minutes was a mixture consisting of an anhydrous tetomilast type B crystal and an anhydrous tetomilast type A crystal (A:B=50:50).” for “form.”

As for `CCOc1ccc(-c2nc(-c3cccc(C(=O)O)n3)cs2)cc1OCC` [anhydrous tetomilast type B crystal, 2-(3,4-diethoxyphenyl)-4-(2-carboxy-6-pyridyl)thiazole], the “crystal form by powder X-ray diffraction” value is reported as “maintained the form as an anhydrous tetomilast type B crystal” in series [1]; “maintained the form as an anhydrous tetomilast type B crystal” in series [2] (stirred at 20° C., 15 minutes); “maintained the form as an anhydrous tetomilast type B crystal” in series [2] (stirred at 20° C., 30 minutes); “maintained the form as an anhydrous tetomilast type B crystal” in series [2] (stirred at 20° C., 60 minutes); “changed to an anhydrous tetomilast type A crystal” in series [2] (stirred at 40° C., 30 minutes); “changed to an anhydrous tetomilast type A crystal” in series [2] (stirred at 40° C., 60 minutes). Further, the “crystal form by powder X-ray diffraction” value in series [2] (stirred at 40° C., 120 minutes) is on record as “changed to an anhydrous tetomilast type A crystal”.
